Measured values as given in patent US9365508B2, “Aroyl thiourea derivatives” (University Court of the University of St Andrews, priority 2009, dated 2016).
Structures can show the parent of a compound that is named as a salt.

Key:
SIRT1 = SIRT1 (Homo sapiens (Human), UniProt Q96EB6); experiment: SIRT1 inhibition assay (Fluor de Lys fluorescence-based assay kit); assay type: biochemical; details: human recombinant enzyme; for inhibition at 60 µM: read-out: SirT1 (% inhib at 60 μM)
Experimental: (§1) SIRT1 and SIRT2 Inhibition Assays
(§2) All compounds were tested for inhibition of SIRT1 and SIRT2 using human recombinant enzymes available in the Fluor de Lys fluorescence-based assay kit (BIOMOL, AK555, AK556). All other required reagents were provided in the kit which was stored at −78° C. Before use, small aliquots of each enzyme (2-3 μL) were prepared, snap frozen in liquid nitrogen and stored at −78° C. Fresh dilutions of compounds were prepared in DMSO and further diluted in assay buffer. NAD^+ (12.5 […] at 4 mM) and Fluor de Lys SIRT1 or SIRT2 (12.5 μL at 100 μM) in assay buffer were added to a white 96 well plate, followed by compound (10 μL) and lastly enzyme (15 μL, 0.07 U/μL or SIRT1 and 0.3 U/μL for SIRT2). After incubation for 1 h at 37° C. a developer solution (50 μL) was added to each reaction. The developer solution contained 38 μL buffer, 10 μL developer and 2 μL nicotinamide (50 mM) per reaction. The plate was then incubated for 45 min at rt and then read using a Spectra Max Gemini fluorimeter with an excitation wavelength of 355 nm and an emission wavelength of 460 nm. SigmaPlot software was used to generate fit curves for raw plots and the equation for each curve was used to calculate IC50 data.

SIRT2 = SIRT2 (Homo sapiens (Human), UniProt Q8IXJ6); experiment: SIRT2 inhibition assay (Fluor de Lys fluorescence-based assay kit); assay type: biochemical; details: human recombinant enzyme; for inhibition at 60 µM: read-out: SirT2 (% inhib at 60 μM)
Experimental: as §1, §2

SIRT1, sequence (Q96EB6 whole entry): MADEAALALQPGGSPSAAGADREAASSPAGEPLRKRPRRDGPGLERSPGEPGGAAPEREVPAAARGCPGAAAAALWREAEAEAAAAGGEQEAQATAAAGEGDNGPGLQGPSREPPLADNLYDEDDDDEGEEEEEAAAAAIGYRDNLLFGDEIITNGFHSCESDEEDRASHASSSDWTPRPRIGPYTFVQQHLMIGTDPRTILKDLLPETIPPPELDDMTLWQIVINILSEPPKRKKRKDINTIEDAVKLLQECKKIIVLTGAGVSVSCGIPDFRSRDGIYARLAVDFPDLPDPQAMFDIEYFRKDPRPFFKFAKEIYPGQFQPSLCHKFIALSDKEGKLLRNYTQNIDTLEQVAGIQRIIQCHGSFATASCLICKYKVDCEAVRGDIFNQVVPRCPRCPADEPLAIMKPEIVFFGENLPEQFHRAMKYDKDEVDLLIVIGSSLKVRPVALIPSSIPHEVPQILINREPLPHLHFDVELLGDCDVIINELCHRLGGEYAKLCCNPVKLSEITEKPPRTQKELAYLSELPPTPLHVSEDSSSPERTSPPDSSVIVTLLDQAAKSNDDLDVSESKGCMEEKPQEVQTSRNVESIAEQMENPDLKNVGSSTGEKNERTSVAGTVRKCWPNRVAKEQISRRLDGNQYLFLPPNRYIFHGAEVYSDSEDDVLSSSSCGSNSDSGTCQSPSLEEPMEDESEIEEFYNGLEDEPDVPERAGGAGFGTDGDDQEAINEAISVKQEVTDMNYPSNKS
SIRT2, sequence (Q8IXJ6 whole entry): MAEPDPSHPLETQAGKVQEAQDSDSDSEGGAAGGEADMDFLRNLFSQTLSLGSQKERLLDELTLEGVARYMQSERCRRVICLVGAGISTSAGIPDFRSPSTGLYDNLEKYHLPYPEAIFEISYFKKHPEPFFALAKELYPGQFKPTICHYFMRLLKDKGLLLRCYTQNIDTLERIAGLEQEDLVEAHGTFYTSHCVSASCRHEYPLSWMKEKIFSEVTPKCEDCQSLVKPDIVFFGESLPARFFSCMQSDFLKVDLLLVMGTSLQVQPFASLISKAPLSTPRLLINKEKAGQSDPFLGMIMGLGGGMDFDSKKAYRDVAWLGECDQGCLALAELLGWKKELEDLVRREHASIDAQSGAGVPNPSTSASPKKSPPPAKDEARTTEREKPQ

Compound: CN(C)CCCCC(=O)Nc1ccc(NC(=S)NC(=O)c2ccc(C(F)(F)F)cc2)cc1.Cl [Compound B6]
- SirT1 (% inhib at 60 μM) (SIRT1; 60 μM compound): 10.9%
- SirT2 (% inhib at 60 μM) (SIRT2; 60 μM compound): 17.1%

Compound: CN(C)CCCCC(=O)Nc1ccc(NC(=S)NC(=O)c2cc(Cl)cc(Cl)c2)cc1 [Compound 360a, 5-Dimethylamino-pentanoic acid {4-[3-(3,5-dichloro-benzoyl)-thioureido]-phenyl}-amide hydrochloride]
- inhibition at 60 µM (SIRT1; 60 μM compound): 23.3%
- inhibition at 60 µM (SIRT2; 60 μM compound): 49.9%

Compound: Cc1ccc(C(=O)NC(=S)Nc2ccc(NC(=O)CCCCN(C)C)cc2)cc1 [318a A2, 5-Dimethylamino-pentanoic acid {4-[3-(4-methyl-benzoyl)-thioureido]-phenyl}-amide hydrochloride]
- inhibition at 60 µM (SIRT1; 60 μM compound): 47%
- inhibition at 60 µM (SIRT2; 60 μM compound): 40%

Compound: CCc1ccc(C(=O)NC(=S)Nc2ccc(NC(=O)CCCCN(C)C)cc2)cc1 [Compound 345d, 5-Dimethylamino-pentanoic acid {4-[3-(4-ethyl-benzoyl)-thioureido]-phenyl}-amide hydrochloride]
- inhibition at 60 µM (SIRT1; 60 μM compound): 9.1%
- inhibition at 60 µM (SIRT2; 60 μM compound): 57.1%

Compound: CN(C)CCCCC(=O)Nc1ccc(NC(=S)NC(=O)c2ccc(Cl)cc2)cc1 [318a A1, 5-Dimethylamino-pentanoic acid {4-[3-(4-chloro-benzoyl)-thioureido]-phenyl}-amide hydrochloride]
- inhibition at 60 µM (SIRT1; 60 μM compound): 53%
- inhibition at 60 µM (SIRT2; 60 μM compound): 61%

Compound: Cc1ccccc1C(=O)NC(=S)Nc1ccc(NC(=O)CCCCN(C)C)cc1 [Compound A1, 5-Dimethylamino-pentanoic acid {4-[3-(2-methyl-benzoyl)-thioureido]-phenyl}-amide hydrochloride]
- inhibition at 60 µM (SIRT1; 60 μM compound): 10%
- IC50 (SIRT1): > 90 µM
- inhibition at 60 µM (SIRT2; 60 μM compound): 48.5%
- IC50 (SIRT2): 80.7 ± 14.4 µM

Compound: COc1ccc(C(=O)NC(=S)Nc2ccc(NC(=O)CCCCN(C)C)cc2)cc1C(F)(F)F [Compound C6, 5-Dimethylamino-pentanoic acid {4-[3-(4-methoxy-3-trifluoromethyl-benzoyl)-thioureido]-phenyl}-amide hydrochloride]
- inhibition at 60 µM (SIRT1; 60 μM compound): 58.3%
- IC50 (SIRT1): 51.7 ± 6.9 µM
- inhibition at 60 µM (SIRT2; 60 μM compound): 29.5%
- IC50 (SIRT2): > 90 µM

Compound: CCOc1c(Cl)cc(C(=O)NC(=S)Nc2ccc(NC(=O)CCCCN(C)C)cc2)cc1Cl [Compound 391a, 5-Dimethylamino-pentanoic acid {4-[3-(3,5-dichloro-4-ethoxy-benzoyl)-thioureido]-phenyl}-amide hydrochloride]
- inhibition at 60 µM (SIRT1; 60 μM compound): 81.5%
- IC50 (SIRT1): 29.3 ± 3.6 µM
- inhibition at 60 µM (SIRT2; 60 μM compound): 87.9%
- IC50 (SIRT2): 3 ± 0.1 µM

Compound: CN(C)CCCCC(=O)Nc1ccc(NC(=S)NC(=O)c2cc(F)c(F)c(F)c2)cc1 [Compound D1, 5-Dimethylamino-pentanoic acid {4-[3-(3,4,5-trifluoro-benzoyl)-thioureido]-phenyl}-amide hydrochloride]
- inhibition at 60 µM (SIRT1; 60 μM compound): 7.5%
- IC50 (SIRT1): > 90 µM
- inhibition at 60 µM (SIRT2; 60 μM compound): 46%
- IC50 (SIRT2): 52.5 ± 12.3 µM

Compound: COc1c(Br)cc(C(=O)NC(=S)Nc2ccc(NC(=O)CCCCN(C)C)cc2)cc1Br [Compound 383a, 5-Dimethylamino-pentanoic acid {4-[3-(3,5-dibromo-4-methoxy-benzoyl)-thioureido]-phenyl}-amide hydrochloride]
- IC50 (SIRT1): 47.2 ± 0.9 µM
- IC50 (SIRT2): 14 ± 1.7 µM

Compound: COc1ccc(C(=O)NC(=S)Nc2ccc(NC(=O)CCCCN(C)C)cc2)cc1 [318a A3, 5-Dimethylamino-pentanoic acid {4-[3-(4-methoxy-benzoyl)-thioureido]-phenyl}-amide hydrochloride]
- inhibition at 60 µM (SIRT1; 60 μM compound): 48%
- inhibition at 60 µM (SIRT2; 60 μM compound): 51%

Compound: CCCCCc1ccc(C(=O)NC(=S)Nc2ccc(NC(=O)CCCCN(C)C)cc2)cc1 [Compound 345a, 5-Dimethylamino-pentanoic acid {4-[3-(4-pentyl-benzoyl)-thioureido]-phenyl}-amide hydrochloride]
- inhibition at 60 µM (SIRT1; 60 μM compound): 73%
- inhibition at 60 µM (SIRT2; 60 μM compound): 85.4%

Compound: CCCc1ccc(C(=O)NC(=S)Nc2ccc(NC(=O)CCCCN(C)C)cc2)cc1 [Compound 345c, 5-Dimethylamino-pentanoic acid {4-[3-(4-propyl-benzoyl)-thioureido]-phenyl}-amide hydrochloride]
- inhibition at 60 µM (SIRT1; 60 μM compound): 82.4%
- inhibition at 60 µM (SIRT2; 60 μM compound): 89%

Compound: Cc1cc(C(=O)NC(=S)Nc2ccc(NC(=O)CCCCN(C)C)cc2)ccc1Br [Compound C5, 5-Dimethylamino-pentanoic acid {4-[3-(4-bromo-3-methyl-benzoyl)-thioureido]-phenyl}-amide hydrochloride]
- inhibition at 60 µM (SIRT1; 60 μM compound): 24%
- IC50 (SIRT1): 69.6 ± 0.6 µM
- inhibition at 60 µM (SIRT2; 60 μM compound): 77.1%
- IC50 (SIRT2): 34.3 ± 7.2 µM

Compound: COc1cccc(C(=O)NC(=S)Nc2ccc(NC(=O)CCCCN(C)C)cc2)c1 [Compound B2, 5-Dimethylamino-pentanoic acid {4-[3-(3-methoxy-benzoyl)-thioureido]-phenyl}-amide hydrochloride]
- inhibition at 60 µM (SIRT1; 60 μM compound): 25.3%
- inhibition at 60 µM (SIRT2; 60 μM compound): 30.5%

Compound: CC(C)c1ccc(C(=O)NC(=S)Nc2ccc(NC(=O)CCCCN(C)C)cc2)cc1 [Compound 331a, 5-Dimethylamino-pentanoic acid {4-[3-(4-isopropyl-benzoyl)-thioureido]-phenyl}-amide hydrochloride]
- inhibition at 60 µM (SIRT1; 60 μM compound): 52.9%
- IC50 (SIRT1): 64.8 ± 3.8 µM
- inhibition at 60 µM (SIRT2; 60 μM compound): 78.4%
- IC50 (SIRT2): 32.5 ± 0.07 µM

Compound: CN(C)CCCCC(=O)Nc1ccc(NC(=S)NC(=O)c2ccc(C(C)(C)C)c(Br)c2)cc1 [Compound 361a, 5-Dimethylamino-pentanoic acid {4-[3-(3-bromo-4-tert-butyl-benzoyl)-thioureido]-phenyl}-amide hydrochloride]
- inhibition at 60 µM (SIRT1; 60 μM compound): 93.5%
- IC50 (SIRT1): 18.3 ± 0.3 µM
- inhibition at 60 µM (SIRT2; 60 μM compound): 91.1%
- IC50 (SIRT2): 4.6 ± 0.6 µM

Compound: CN(C)CCCCC(=O)Nc1ccc(NC(=S)NC(=O)c2cccc(Cl)c2)cc1 [Compound A5, 5-Dimethylamino-pentanoic acid {4-[3-(3-chloro-benzoyl)-thioureido]-phenyl}-amide hydrochloride]
- inhibition at 60 µM (SIRT1; 60 μM compound): 29.2%
- inhibition at 60 µM (SIRT2; 60 μM compound): 57.9%

Compound: CCCCc1ccc(C(=O)NC(=S)Nc2ccc(NC(=O)CCCCN(C)C)cc2)cc1 [Compound 345b, 5-Dimethylamino-pentanoic acid {4-[3-(4-butyl-benzoyl)-thioureido]-phenyl}-amide hydrochloride]
- inhibition at 60 µM (SIRT1; 60 μM compound): 56.3%
- inhibition at 60 µM (SIRT2; 60 μM compound): 90%

Compound: Cc1ccc(C(=O)NC(=S)Nc2ccc(NC(=O)CCCCN(C)C)cc2)cc1Br [Compound 330a, 5-Dimethylamino-pentanoic acid {4-[3-(3-bromo-4-methyl-benzoyl)-thioureido]-phenyl}-amide hydrochloride]
- inhibition at 60 µM (SIRT1; 60 μM compound): 33%
- IC50 (SIRT1): 43.9 ± 7.3 µM
- inhibition at 60 µM (SIRT2; 60 μM compound): 80.2%
- IC50 (SIRT2): 31.9 ± 1.6 µM

Compound: CN(C)CCCCC(=O)Nc1ccc(NC(=S)NC(=O)c2ccc(Br)cc2)cc1 [Compound B5, 5-Dimethylamino-pentanoic acid {4-[3-(4-bromo-benzoyl)-thioureido]-phenyl}-amide hydrochloride]
- inhibition at 60 µM (SIRT1; 60 μM compound): 13.5%
- IC50 (SIRT1): 62.1 ± 2.3 µM
- inhibition at 60 µM (SIRT2; 60 μM compound): 47.7%
- IC50 (SIRT2): 39.5 ± 9.7 µM

Compound: CN(C)CCCCC(=O)Nc1ccc(NC(=S)NC(=O)c2ccc(Cl)c(Cl)c2)cc1 [Compound 311d, 5-Dimethylamino-pentanoic acid {4-[3-(3,4-dichloro-benzoyl)-thioureido]-phenyl}-amide hydrochloride]
- inhibition at 60 µM (SIRT1; 60 μM compound): 8%
- IC50 (SIRT1): 70.9 ± 4.2 µM
- inhibition at 60 µM (SIRT2; 60 μM compound): 68%
- IC50 (SIRT2): 31.9 ± 6.4 µM

Compound: COc1ccc(C(=O)NC(=S)Nc2ccc(NC(=O)CCCCN(C)C)cc2)cc1Cl [Compound 350a, 5-Dimethylamino-pentanoic acid {4-[3-(3-chloro-4-methoxy-benzoyl)-thioureido]-phenyl}-amide hydrochloride]
- inhibition at 60 µM (SIRT1; 60 μM compound): 9%
- inhibition at 60 µM (SIRT2; 60 μM compound): 37.8%

Compound: CN(C)CCCCC(=O)Nc1ccc(NC(=S)NC(=O)c2cccc(Br)c2)cc1 [Compound A6, 5-Dimethylamino-pentanoic acid {4-[3-(3-bromo-benzoyl)-thioureido]-phenyl}-amide hydrochloride]
- inhibition at 60 µM (SIRT1; 60 μM compound): 70.5%
- IC50 (SIRT1): 39.9 ± 8.1 µM
- inhibition at 60 µM (SIRT2; 60 μM compound): 81%
- IC50 (SIRT2): 21.2 ± 7.2 µM

Compound: CCCCOc1c(Cl)cc(C(=O)NC(=S)Nc2ccc(NC(=O)CCCCN(C)C)cc2)cc1Cl [Compound 392a, 5-Dimethylamino-pentanoic acid {4-[3-(4-butoxy-3,5-dichloro-benzoyl)-thioureido]-phenyl}-amide hydrochloride]
- inhibition at 60 µM (SIRT1; 60 μM compound): 90.4%
- IC50 (SIRT1): 22.5 ± 1.3 µM
- inhibition at 60 µM (SIRT2; 60 μM compound): 96.3%
- IC50 (SIRT2): 0.4 ± 0.4 µM

Compound: COc1cc(C(=O)NC(=S)Nc2ccc(NC(=O)CCCCN(C)C)cc2)cc(OC)c1OC [Compound D2, 5-Dimethylamino-pentanoic acid {4-[3-(3,4,5-trimethoxy-benzoyl)-thioureido]-phenyl}-amide hydrochloride]
- inhibition at 60 µM (SIRT2; 60 μM compound): 18%

Compound: CN(C)CCCCC(=O)Nc1ccc(NC(=S)NC(=O)c2ccccc2)cc1 [Compound B4, 5-Dimethylamino-pentanoic acid [4-(3-benzoyl-thioureido)-phenyl]-amide hydrochloride]
- inhibition at 60 µM (SIRT1; 60 μM compound): 3.5%
- inhibition at 60 µM (SIRT2; 60 μM compound): 43.7%

Compound: Cc1cccc(C(=O)NC(=S)Nc2ccc(NC(=O)CCCCN(C)C)cc2)c1 [Compound B1, 5-Dimethylamino-pentanoic acid {4-[3-(3-methyl-benzoyl)-thioureido]-phenyl}-amide]
- inhibition at 60 µM (SIRT1; 60 μM compound): 5%
- inhibition at 60 µM (SIRT2; 60 μM compound): 20.9%
